Measurements from patent US20260224573A1, “CRYSTAL FORM OF COMPOUND, AND PREPARATION METHOD AND USE THEREOF” (FELICAMED BIOTECHNOLOGY CO., LTD., priority 2023, published 2026).
Values after ≈ are worked out from the molar mass of the structure shown. Like-named read-outs stand apart in the source and are kept apart here.

Tests used:
[1] = Assessment of dynamic solubility; type: physicochemical; details: for FC: crystal transfer (XRPD of solid) / pH of filtrate: 37° C.; for solubility / solubility at 1 h / solubility at 2 h / solubility at 4 h / solubility at 24 h: 37 °C, thermodynamic from solid; for solubility at 1 h / solubility at 2 h / solubility at 4 h / solubility at 24 h: read-out: S: solubility, calculated as free form
[2] = TGA weight loss / thermal stability; type: physicochemical
Description: TGA and DSC patterns were collected on a TA Q5000 thermogravimetric analyzer and a TA Discovery 2500 differential scanning calorimeter, respectively.
TGA results were collected on a TA Discovery 5500 thermogravimetric analyzer, and DSC results were collected on a TA Discovery 2500 differential scanning calorimeter.

[3] = Description: DVS isotherms were collected on an SMS (Surface Measurement Systems) DVS Intrinsic.
[4] = Acute toxicity test, single oral intragastric administration; type: in vivo; details: Sprague-Dawley, rat, in vivo
Experimental: (§1) In this experiment, all animals were randomly divided into 5 groups (5 animals/sex/group), received the drug at 97 mg/kg, 174 mg/kg, 312 mg/kg, 559 mg/kg, and 1000 mg/kg, respectively, and received signal intragastric administration orally. […] All animals received administration according to their latest weighed body weight. The drug was stirred for at least 10 min before administration, and continuously stirred during administration until the administration of the sample at this concentration was completed. The animals were fasted for 11 h to 12 h before administration and resumed eating approximately 2 h after administration, with no restriction on drinking water.
(§2) All animals underwent a comprehensive physical examination by a veterinarian before administration. During the acclimation period, cage-side observation was performed once or twice a day, and detailed clinical observation was performed once a day. During the experiment, cage-side observation was performed twice a day (once on the day of dissection), and detailed clinical observation was performed once or twice a day. All surviving animals were weighed once on the day of random grouping (Day-1), Day 1 (before administration), Day 3, Day 5, Day 7, and Day 8; and their 24±1-hour food consumption was measured once on Day 1 (Day 1 to Day 2), Day 2 (Day 2 to Day 3), and Day 6 (Day 6 to Day 7). At the end of the experimental (Day 8), all surviving animals were euthanized by carbon dioxide inhalation and abdominal aorta/vein bleeding and then subjected to gross anatomical examination. Animals that died during the experiment were also subjected to gross anatomical examination.

SD rats = assay: as above; type: in vivo; details: female rats
Experimental: as §1, §2

[5] = Assessment of 24-h solubility in pH buffers; type: physicochemical; details: room temperature

Compound: CC[S@@](=N)(=O)C[C@H]1CC[C@H](N(C)c2ncnc3[nH]ccc23)CC1 [Free crystal form A]
- FC: crystal transfer (XRPD of solid) ([1]; FaSSIF, 1 h): No
- pH of filtrate ([1]; FaSSIF, 1 h): 6.6
- FC: crystal transfer (XRPD of solid) ([1]; FaSSIF, 2 h): No
- pH of filtrate ([1]; FaSSIF, 2 h): 6.6
- FC: crystal transfer (XRPD of solid) ([1]; FaSSIF, 4 h): No
- pH of filtrate ([1]; FaSSIF, 4 h): 6.6
- FC: crystal transfer (XRPD of solid) ([1]; FaSSIF, 24 h): No
- pH of filtrate ([1]; FaSSIF, 24 h): 6.6
- FC: crystal transfer (XRPD of solid) ([1]; FeSSIF, 1 h): No
- pH of filtrate ([1]; FeSSIF, 1 h): 5.3
- FC: crystal transfer (XRPD of solid) ([1]; FeSSIF, 2 h): No
- pH of filtrate ([1]; FeSSIF, 2 h): 5.3
- FC: crystal transfer (XRPD of solid) ([1]; FeSSIF, 4 h): No
- pH of filtrate ([1]; FeSSIF, 4 h): 5.3
- FC: crystal transfer (XRPD of solid) ([1]; FeSSIF, 24 h): No
- solubility ([1]; H2O and FaSSIF, water, in H2O and FaSSIF): 2.1 to 2.4 mg/mL (≈ 6.26 to 7.15 mM)
- FC: crystal transfer (XRPD of solid) ([1]; H2O, 1 h): No
- FC: crystal transfer (XRPD of solid) ([1]; H2O, 2 h): No
- FC: crystal transfer (XRPD of solid) ([1]; H2O, 4 h): No
- pH of filtrate ([1]; H2O, 4 h): 6.7
- FC: crystal transfer (XRPD of solid) ([1]; H2O, 24 h): No
- solubility ([1]; SGF and FeSSIF, simulated gastric fluid, in SGF and FeSSIF, sample not fully dissolved): 9 to 10 mg/mL (≈ 26.8 to 29.8 mM)
- FC: crystal transfer (XRPD of solid) ([1]; SGF, 1 h): No
- FC: crystal transfer (XRPD of solid) ([1]; SGF, 2 h): No
- pH of filtrate ([1]; SGF, 2 h): 5.2
- FC: crystal transfer (XRPD of solid) ([1]; SGF, 4 h): No
- pH of filtrate ([1]; SGF, 4 h): 5.2
- FC: crystal transfer (XRPD of solid) ([1]; SGF, 24 h): No
- solubility at 1 h ([1]; fed state simulated intestinal fluid (FeSSIF), fessif, FeSSIF, 1 h): 9.4 mg/mL (≈ 28 mM)
- solubility at 2 h ([1]; fed state simulated intestinal fluid (FeSSIF), fessif, FeSSIF, 2 h): 9.2 mg/mL (≈ 27.4 mM)
- solubility at 4 h ([1]; fed state simulated intestinal fluid (FeSSIF), fessif, FeSSIF, 4 h): 9.4 mg/mL (≈ 28 mM)
- solubility at 24 h ([1]; fed state simulated intestinal fluid (FeSSIF), fessif, FeSSIF, 24 h): 9.9 mg/mL (≈ 29.5 mM)
- solubility at 1 h ([1]; simulated gastric fluid (SGF), simulated gastric fluid, SGF, 1 h): 9 mg/mL (≈ 26.8 mM)
- solubility at 2 h ([1]; simulated gastric fluid (SGF), simulated gastric fluid, SGF, 2 h): 8.9 mg/mL (≈ 26.5 mM)
- solubility at 4 h ([1]; simulated gastric fluid (SGF), simulated gastric fluid, SGF, 4 h): 8.8 mg/mL (≈ 26.2 mM)
- solubility at 24 h ([1]; simulated gastric fluid (SGF), simulated gastric fluid, SGF, 24 h): 9.1 mg/mL (≈ 27.1 mM)
- thermal stability ([2]; comparison of TGA/DSC patterns): high
- TGA weight loss ([2]; heated from room temperature to 180° C.): 1.7%
- hygroscopicity ([3]; 25° C./80% RH): slight hygroscopicity
- Crystal transformation after DVS ([3]; XRPD before and after DVS): No
- LD50 at 7 d ([4]; oral, female rats, read-out: LD50 95% confidence interval): 313 to 558 mg/kg
- LD50 at 7 d ([4]; oral, male rats, read-out: LD50 95% confidence interval): 429 to 818 mg/kg
- MTD at 7 d ([4]; oral, male rats, read-out: maximum tolerance dose (MTD)): 312 mg/kg
- LD50 at 7 d ([4]; po, female rats, single intragastric administration, 7 d observation, read-out: LD50): 418 mg/kg
- LD50 at 7 d ([4]; po, male rats, single intragastric administration, 7 d observation, read-out: LD50): 592 mg/kg
- maximum tolerance dose (SD rats): 174 mg/kg
- FC: crystal transfer ([5]; Buffer (pH = 2.0)): No
- FC: crystal transfer ([5]; Buffer (pH = 7.4)): No
- solubility at 24 h ([5]; buffer pH 7.4, pH 7.4, aqueous buffer, thermodynamic from solid, Buffer (pH = 7.4), read-out: S: solubility, calculated as free form): 1.7 mg/mL (≈ 5.07 mM)
